Measured values from US20230382925A1, “MODULATORS OF CYSTIC FIBROSIS TRANSMEMBRANE CONDUCTANCE REGULATOR” (VERTEX PHARMACEUTICALS INCORPORATED, priority 2020, published 2023).

Molecular target: CFTR (Homo sapiens, UniProt P13569)
Experiment: Membrane Potential Dye, Enteroid Assay A
Assay type: cell-based
Conditions: for EC50: read-out: Ent. A EC50
Procedure: Base medium (ADF+++) consisted of Advanced […], 2 mM Glutamax, 10 mM HEPES, 1 μg/mL penicillin/streptomycin.
Intestinal enteroid maintenance medium (IEMMN) consisted of ADF+++, 1× B27 supplement, 1× N2 supplement, 1.25 mM N-acetyl cysteine, 10 mM Nicotinamide, 50 ng/mL hEGF, 10 nM Gastrin, 1 μg/mL hR-spondin-1, 100 ng/mL hNoggin, TGF-b type 1 inhibitor A-83-01, 100 μg/mL Primocin, 10 μM P38 MAPK inhibitor SB202190.
Bath 1 Buffer consisted of 1 mM MgCl2, 160 mM NaCl, 4.5 mM KCl, 10 mM HEPES, 10 mM Glucose, 2 mM CaCl2).
Chloride Free Buffer consisted of 1 mM Magnesium Gluconate, 2 mM Calcium Gluconate, 4.5 mM Potassium Gluconate, 160 mM Sodium Gluconate, 10 mM HEPES, 10 mM Glucose.
Bath 1 Dye Solution consisted of Bath 1 Buffer, 0.04% Pluronic F127, 20 μM Methyl Oxonol, 30 μM CaCCinh-A01, 30 μM Chicago Sky Blue.
Chloride Free Dye Solution consisted of Chloride Free Buffer, 0.04% Pluronic F127, 20 μM Methyl Oxonol, 30 μM CaCCinh-A01, 30 μM Chicago Sky Blue.
Chloride Free Dye Stimulation Solution consisted of Chloride Free Dye Solution, 10 μM forskolin, 100 μM IBMX, and 300 nM Compound III.
Human intestinal epithelial enteroid cells were obtained from the Hubrecht Institute for Developmental Biology and Stem Cell Research, Utrecht, The Netherlands and expanded in T-Flasks as previously described (Dekkers J F, Wiegerinck C L, de Jonge H R, Bronsveld I, Janssens H M, de Winter-de Groot K M, Brandsma A M, de Jong N W M, Bijvelds M J C, Scholte B J, Nieuwenhuis E E S, van den Brink S, Clevers H, van der Ent C K, Middendorp S and M Beekman J M. A functional CFTR assay using primary cystic fibrosis intestinal organoids. Nat Med. 2013 July; 19(7):939-45.).
3. Enteroid Cell Harvesting and Seeding
Cells were recovered in cell recovery solution, collected by centrifugation at 650 rpm for 5 min at 4° C., resuspended in TrypLE and incubated for 5 min at 37° C. Cells were then collected by centrifugation at 650 rpm for 5 min at 4° C. and resuspended in IEMM containing 10 μM ROCK inhibitor (RI). The cell suspension was passed through a 40 μm cell strainer and resuspended at 1×10^6 cells/mL in IEMM containing 10 μM RI. Cells were seeded at 5000 cells/well into multi-well plates and incubated for overnight at 37° C., 95% humidity and 5% CO2 prior to assay.
4. Membrane Potential Dye, Enteroid Assay A
Enteroid cells were incubated with test compound in IEMM for 18-24 hours at 37° C., 95% humidity and 5% CO2. […] Briefly, cells were washed 5 times in Bath 1 Buffer. Bath 1 Dye Solution was added, and the cells were incubated for 25 min at room temperature. Following dye incubation, cells were washed 3 times in Chloride Free Dye Solution. Chloride transport was initiated by addition of Chloride Free Dye Stimulation Solution and the fluorescence signal was read for 15 min. […] Chloride transport was then expressed as a percentage of the chloride transport following treatment with 3 μM N-[(6-amino-2-pyridyl)sulfonyl]-6-(3-fluoro-5-isobutoxy-phenyl)-2-[(4S)-2,2,4-trimethylpyrrolidin-1-yl]pyridine-3-carboxamide, 3 μM (R)-1-(2,2-difluorobenzo[d][1,3]dioxol-5-yl)-N-(1-(2,3-dihydroxypropyl)-6-fluoro-2-(1-hydroxy-2-methylpropan-2-yl)-1H-indol-5-yl)cyclopropanecarboxamide and 300 nM acute N-[2,4-bis(1,1-dimethylethyl)-5-hydroxyphenyl]-1,4-dihydro-4-oxoquinoline-3-carboxamide triple combination control (% Activity).

Sequence of CFTR (P13569 with tags, fused parts or gaps DEL508-508): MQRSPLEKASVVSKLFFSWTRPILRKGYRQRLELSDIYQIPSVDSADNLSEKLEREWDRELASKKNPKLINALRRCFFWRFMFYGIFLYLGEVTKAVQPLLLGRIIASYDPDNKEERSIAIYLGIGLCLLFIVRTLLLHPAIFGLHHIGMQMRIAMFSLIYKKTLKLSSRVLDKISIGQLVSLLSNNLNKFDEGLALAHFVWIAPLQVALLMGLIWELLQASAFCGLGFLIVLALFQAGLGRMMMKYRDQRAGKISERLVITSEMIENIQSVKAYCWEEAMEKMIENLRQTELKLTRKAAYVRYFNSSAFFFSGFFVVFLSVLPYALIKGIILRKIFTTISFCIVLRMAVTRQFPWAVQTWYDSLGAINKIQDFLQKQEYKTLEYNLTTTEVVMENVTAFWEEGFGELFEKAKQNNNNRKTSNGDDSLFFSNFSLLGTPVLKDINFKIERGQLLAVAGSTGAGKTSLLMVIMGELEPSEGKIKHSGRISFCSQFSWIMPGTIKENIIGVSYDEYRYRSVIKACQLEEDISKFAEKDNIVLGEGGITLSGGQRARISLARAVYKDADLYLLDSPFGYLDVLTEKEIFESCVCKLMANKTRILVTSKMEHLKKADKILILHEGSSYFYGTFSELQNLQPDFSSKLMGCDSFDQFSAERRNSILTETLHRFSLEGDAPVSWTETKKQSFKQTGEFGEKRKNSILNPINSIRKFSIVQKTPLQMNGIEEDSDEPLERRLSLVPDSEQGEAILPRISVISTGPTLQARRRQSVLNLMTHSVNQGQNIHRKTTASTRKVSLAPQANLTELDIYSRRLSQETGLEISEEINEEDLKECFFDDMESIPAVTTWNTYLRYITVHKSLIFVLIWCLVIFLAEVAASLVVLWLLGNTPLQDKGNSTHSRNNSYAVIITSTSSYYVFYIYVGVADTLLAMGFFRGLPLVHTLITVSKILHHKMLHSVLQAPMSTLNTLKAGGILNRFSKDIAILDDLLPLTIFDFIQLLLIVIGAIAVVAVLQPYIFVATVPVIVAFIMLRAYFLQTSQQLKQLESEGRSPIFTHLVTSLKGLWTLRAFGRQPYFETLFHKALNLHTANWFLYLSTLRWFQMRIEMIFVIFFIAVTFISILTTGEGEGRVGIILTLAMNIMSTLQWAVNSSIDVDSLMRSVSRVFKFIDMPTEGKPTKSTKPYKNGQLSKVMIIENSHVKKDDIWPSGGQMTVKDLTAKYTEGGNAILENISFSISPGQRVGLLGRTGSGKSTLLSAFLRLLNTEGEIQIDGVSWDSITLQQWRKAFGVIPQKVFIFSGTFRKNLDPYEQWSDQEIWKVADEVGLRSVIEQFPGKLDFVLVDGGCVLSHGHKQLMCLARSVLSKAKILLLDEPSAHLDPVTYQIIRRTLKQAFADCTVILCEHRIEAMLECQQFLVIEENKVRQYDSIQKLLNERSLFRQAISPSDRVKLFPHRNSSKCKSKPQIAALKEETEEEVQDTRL

| Ent. A Max Activity (%) | EC50 | SMILES |
| --- | --- | --- |
| +++ (+++ is >60%) | 3000 to 30000 nM | Cc1cccc(C)c1-c1cc2nc(n1)NS(=O)(=O)c1cccc(c1)C(=O)N(C1CCOCC1)CCO2 [Compound 439] |
| + (+ is <300%) | < 1000 nM | Cc1cccc(C)c1-c1cc2nc(n1)NS(=O)(=O)c1cccc(c1)C(=O)N(C1CC3(CC3)C1)[C@@H](CC1(C(F)(F)F)CC1)CO2 [Compound 351] |
| ++ (++ is 30-60%) | < 1000 nM | Cc1cccc(C)c1-c1cc2nc(n1)NS(=O)(=O)c1cccc(c1)C(=O)N(C1CC3(CCCCC3)C1)[C@H](CC(C)C)CO2 [Compound 338] |
| +++ (+++ is >60%) | < 1000 nM | CC(C)C[C@@H]1COc2cc(C3CCCCC3(C)C)nc(n2)NS(=O)(=O)c2cccc(c2)C(=O)N1C1CC2(CCNCC2)C1 (stereo partly shown) [Compound 399] |
| ++ (++ is 30-60%) | < 1000 nM | CC(C)C[C@@H]1COc2cc(C3CCCCC3(C)C)nc(n2)NS(=O)(=O)c2cccc(c2)C(=O)N1C1CC2(CCN(C(=O)OC(C)(C)C)CC2)C1 (stereo partly shown) [Compound 400] |
| + (+ is <300%) |  | Cc1cccc(C)c1-c1cc2nc(n1)NS(=O)(=O)c1cccc(c1)C(=O)N(C1CCN(C)CC1)CCO2 [Compound 438] |
| +++ (+++ is >60%) | < 1000 nM | CNC(=O)[C@H]1CC2(C1)C[C@H](N1C(=O)c3cccc(c3)S(=O)(=O)Nc3nc(cc(-c4c(C)cccc4C)n3)OC[C@H]1CC(C)C)C2 (stereo in doubt) [Compound 347] |
| +++ (+++ is >60%) | < 1000 nM | Cc1cccc(C)c1-c1cc2nc(n1)NS(=O)(=O)c1cccc(c1)C(=O)N([C@H]1C[C@]3(CCCN(C)C3)C1)[C@H](CC(C)C)CO2 [Compound 332] |
| ++ (++ is 30-60%) | < 1000 nM | COC(=O)N1CCC2(CC1)CC(N1C(=O)c3cccc(c3)S(=O)(=O)Nc3nc(cc(C4CCCCC4(C)C)n3)OC[C@H]1CC(C)C)C2 (stereo partly shown) [Compound 395] |
| +++ (+++ is >60%) | < 1000 nM | Cc1cccc(C)c1-c1cc2nc(n1)NS(=O)(=O)c1cccc(c1)C(=O)N(C1CC3(CCN(C[C@H](O)CO)CC3)C1)[C@H](CC(C)C)CO2 [Compound 341] |

Continued, compound first:

| SMILES | Ent. A Max Activity (%) | EC50 |
| --- | --- | --- |
| Cc1cccc(C)c1-c1cc2nc(n1)NS(=O)(=O)c1cccc(c1)C(=O)N(C1CC3(CCN(C)CC3)C1)C(CC1(C(F)(F)F)CC1)CO2 (single isomer, unassigned) [Compound 137, 6-(2,6-dimethylphenyl)-12-(7-methyl-7-azaspiro[3.5]nonan-2-yl)-2,2-dioxo-11-[[1-(trifluoromethyl)cyclopropyl]methyl]-9-oxa-2λ^6-thia-3,5,12,19-tetrazatricyclo[12.3.1.14,8]nonadeca-1(18),4(19),5,7,14,16-hexaen-13-one] | +++ (+++ is >60%) | 1000 to 3000 nM |
| CC(C)C[C@@H]1COc2cc(-c3ccccc3C(C)C)nc(n2)NS(=O)(=O)c2cccc(c2)C(=O)N1C1CC2(CCN(C(=O)OC(C)(C)C)CC2)C1 [Compound 12, tert-Butyl 2-[(11R)-11-isobutyl-6-(2-isopropylphenyl)-2,2,13-trioxo-9-oxa-2λ^6-thia-3,5,12,19-tetrazatricyclo[12.3.1.14,8]nonadeca-1(18),4,6,8(19),14,16-hexaen-12-yl]-7-azaspiro[3.5]nonane-7-carboxylate] | ++ (++ is 30-60%) | < 1000 nM |
| Cc1cccc(C)c1-c1cc2nc(n1)NS(=O)(=O)c1cccc(c1)C(=O)N(C1CC3(CC3)C1)C(CC(C)(C)C(F)(F)F)CO2 (stereo not shown) [Compound 216] | +++ (+++ is >60%) | < 1000 nM |
| Cc1cccc(C)c1-c1cc2nc(n1)NS(=O)(=O)c1cccc(c1)C(=O)N(C1CC(C(=O)N3CCN(C)CC3)C1)[C@H](CC(C)C)CO2 (stereo partly drawn) [Compound 36, (11R)-6-(2,6-dimethylphenyl)-11-isobutyl-12-[3-(4-methylpiperazine-1-carbonyl)cyclobutyl]-2,2-dioxo-9-oxa-2λ^6-thia-3,5,12,19-tetrazatricyclo[12.3.1.14,8]nonadeca-1(18),4(19),5,7,14,16-hexaen-13-one] | +++ (+++ is >60%) | < 1000 nM |
| Cc1cccc(C)c1-c1cc2nc(n1)NS(=O)(=O)c1cccc(c1)C(=O)N(C1CCC1)[C@H](CC(C)C)CO2 [Compound 27, (11R)-12-cyclobutyl-6-(2,6-dimethylphenyl)-11-isobutyl-2,2-dioxo-9-oxa-2λ^6-thia-3,5,12,19-tetrazatricyclo[12.3.1.14,8]nonadeca-1(18),4(19),5,7,14,16-hexaen-13-one] | ++ (++ is 30-60%) | < 1000 nM |
| Cc1cccc(C)c1-c1cc2nc(n1)NS(=O)(=O)c1cccc(c1)C(=O)N(C1CC3(CC3)C1)C(CC(F)(F)F)CO2 (single isomer, unassigned) [Compound 125, 6-(2,6-dimethylphenyl)-12-{spiro[2.3]hexan-5-yl}-11-(2,2,2-trifluoroethyl)-9-oxa-2λ^6-thia-3,5,12,19-tetraazatricyclo[12.3.1.14,8]nonadeca-1(17),4(19),5,7,14(18),15-hexaene-2,2,13-trione] | ++ (++ is 30-60%) | < 1000 nM |
| Cc1cccc(C)c1-c1cc2nc(n1)NS(=O)(=O)c1cccc(c1)C(=O)N(C1CC3(CC3)C1)C(CC(F)(F)F)CO2 (single isomer, unassigned) [Compound 109, 6-(2,6-Dimethylphenyl)-2,2-dioxo-12-spiro[2.3]hexan-5-yl-11-(2,2,2-trifluoroethyl)-9-oxa-2λ^6-thia-3,5,12,19-tetrazatricyclo[12.3.1.14,8]nonadeca-1(18),4(19),5,7,14,16-hexaen-13-one] | ++ (++ is 30-60%) | 1000 to 3000 nM |
| COC(=O)N1CCC2(CC(N3C(=O)c4cccc(c4)S(=O)(=O)Nc4nc(cc(-c5c(C)cccc5C)n4)OC[C@H]3CC(C)C)C2)C1 (stereo partly shown) [Compound 328] | +++ (+++ is >60%) | < 1000 nM |
| Cc1cccc(C)c1-c1cc2nc(n1)NS(=O)(=O)c1cccc(c1)C(=O)N([C@H]1CC3(C[C@H](N(C)C)C3)C1)[C@H](CC(C)C)CO2 (stereo partly shown) [Compound 314] | +++ (+++ is >60%) | < 1000 nM |
| Cc1cccc(C)c1-c1cc2nc(n1)NS(=O)(=O)c1cccc(c1)C(=O)N([C@H]1C[C@@H](OCc3ccccc3)C1)[C@H](CC(C)C)CO2 (single isomer, unassigned) [Compound 42] | ++ (++ is 30-60%) | < 1000 nM |
| Cc1cccc(C)c1-c1cc2nc(n1)NS(=O)(=O)c1cccc(c1)C(=O)N(C1CC3(CCN(C)CC3)C1)C(CC1(C(F)(F)F)CC1)CO2 (single isomer, unassigned) [Compound 136, 6-(2,6-Dimethylphenyl)-12-(7-methyl-7-azaspiro[3.5]nonan-2-yl)-2,2-dioxo-11-[[1-(trifluoromethyl)cyclopropyl]methyl]-9-oxa-2λ^6-thia-3,5,12,19-tetrazatricyclo[12.3.1.14,8]nonadeca-1(18),4(19),5,7,14,16-hexaen-13-one] | +++ (+++ is >60%) | < 1000 nM |
| COC(=O)N1CCC2(CC1)CC(N1C(=O)c3cccc(c3)S(=O)(=O)Nc3nc(cc(-c4c(C)cccc4C)n3)OC[C@@H]1CC(C)C)C2 [Compound 113, Methyl 2-[(11S)-6-(2,6-dimethylphenyl)-11-isobutyl-2,2,13-trioxo-9-oxa-2λ^6-thia-3,5,12,19-tetrazatricyclo[12.3.1.14,8]nonadeca-1(18),4(19),5,7,14,16-hexaen-12-yl]-7-azaspiro[3.5]nonane-7-carboxylate] | ++ (++ is 30-60%) | < 1000 nM |
